Reference: ChEMBL document CHEMBL1201862, “PubChem BioAssay data set” (2004)
Active and inactive are the calls of the source.

Key:
Trypsin = Trypsin (Sus scrofa, UniProt P00761); experiment: trypsin protease activity blockade – biochemical, quenched peptide fluorescence, cherry-pick, selectivity assay for Rce1 protease inhibitor project, dose response (AID 488789)
CAAX prenyl protease 2 = CAAX prenyl protease 2 (Saccharomyces cerevisiae S288c, UniProt Q03530); type: biochemical
CAAX prenyl protease 1 = CAAX prenyl protease 1 (Saccharomyces cerevisiae S288c, UniProt P47154); experiment: yeast CAAX protease Ste24 inhibition – biochemical, S. cerevisiae, plate reader, cherry-pick, dose response (AID 488815)
[1] = target: T1, Delta-type opioid receptor (Homo sapiens, UniProt P41143); experiment: HTS Image-Based Screen for Antagonists of the DOR Receptor. [Related pubchem assays (depositor defined):AID1777, AID1785, AID1786, AID2133]; type: functional
Mu-type opioid receptor [2] = target: T2, Mu-type opioid receptor (Homo sapiens, UniProt P35372); experiment: HTS Image-Based Screen for Agonists of the MOR Receptor. [Related pubchem assays (depositor defined):AID1777, AID1785, AID1786, AID2133]; type: functional
[3] = target: T1, Delta-type opioid receptor; experiment: HTS Image-Based Screen for Agonists of the DOR Receptor. [Related pubchem assays (depositor defined):AID1777, AID1786, AID2133]; type: functional
[4] = target: T3, Kappa-type opioid receptor (Homo sapiens, UniProt P41145); type: functional
[5] = target: T3, Kappa-type opioid receptor; type: functional; remark: listed apart in the source
[6] = target: T3, Kappa-type opioid receptor; experiment: SAR analysis of small molecule agonists of the kappa opioid receptor via a luminescent beta-arrestin assay. [Related pubchem assays (depositor defined):AID1777, AID1786, AID1966, AID2133, AID2136, AID2348, AID2352, AID2357, AID2359, AID2370, AID2420, AID2478, AID2491, AID2492, AID2493, AID2497, AID2498, AID2500, AID449737, AID488822, AID488842]; type: functional
Mu-type opioid receptor [7] = target: T2, Mu-type opioid receptor; experiment: mu opioid receptor activators, image-based, SAR follow-up (AID 2352); type: functional
[8] = target: T1, Delta-type opioid receptor; experiment: DOR agonists, SAR follow-up, image-based (AID 2370); type: functional
[9] = target: T3, Kappa-type opioid receptor; experiment: kappa opioid receptor blockers, image-based, SAR follow-up (AID 2348); type: functional
Mu-type opioid receptor [10] = target: T2, Mu-type opioid receptor; experiment: mu opioid receptor blockers – image-based, SAR follow-up (AID 2420); type: functional;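 also: compounds added before stimulation of receptor with agonist DAMGO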
[11] = target: T3, Kappa-type opioid receptor; experiment: SAR analysis of small molecule agonists of the kappa opioid receptor via a luminescent beta-arrestin assay - Set 3. [Related pubchem assays (depositor defined):AID1777, AID1785, AID1786, AID1966, AID2133, AID2136, AID2284, AID2500]; type: functional
[12] = target: T1, Delta-type opioid receptor; experiment: delta opioid receptor blockers – image-based, SAR follow-up (AID 2357); type: functional
Escherichia coli = experiment: microbe, parasite or virus in culture
[13] = decrease of insulin promoter-GFP reporter – imaging, high-content screening, mouse beta cells (AID 1628); type: functional; conditions: MIN6
[14] = MIN6 cell viability loss – mouse insulinoma, cytotoxicity control, dose response (AID 2122); type: functional;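 also: confirmatory high-throughput counterscreen run to flag cytotoxic compounds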
[15] = target: Peroxisome proliferator-activated receptor gamma/Nuclear receptor coactivator 2 (Homo sapiens, UniProt P37231); type: functional;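 also: agonist potency for raising coactivator recruitment to the receptor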
[16] = target: Peroxisome proliferator-activated receptor gamma/Nuclear receptor coactivator 1 (Homo sapiens, UniProt P37231); type: functional;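 also: agonist potency as compounds enhance coactivator SRC-1 recruitment to PPARgamma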
[17] = target: Peroxisome proliferator-activated receptor gamma/Nuclear receptor coactivator 3 (Homo sapiens, UniProt P37231); type: functional;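 also: agonist potency for raising coactivator recruitment to the receptor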
Cytochrome P450 2C9 = Cytochrome P450 2C9 (Homo sapiens, UniProt P11712)
Cytochrome P450 2D6 = Cytochrome P450 2D6 (Homo sapiens, UniProt P10635);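 also: CYP2D6 member of a cytochrome P450 panel assay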
Cytochrome P450 3A4 = Cytochrome P450 3A4 (Homo sapiens, UniProt P08684);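 also: CYP3A4 tested as one member of a cytochrome P450 panel screen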
[18] = target: Lysine-specific demethylase 4A (Homo sapiens, UniProt O75164); experiment: inhibition of JMJD2A H3K9me3 demethylation – biochemical, DELFIA europium, cherry-picked samples, selectivity assay for GASC-1 inhibitor project, dose response (AID 488840)
[19] = target: Lysine-specific demethylase 4C (Homo sapiens, UniProt Q9H3R0); experiment: inhibition of JMJD2C H3K9me3 demethylation – biochemical, DELFIA europium, cherry-picked samples, dose response (AID 488835); type: functional
[20] = target: Dual specificity tyrosine-phosphorylation-regulated kinase 1A (Rattus norvegicus, UniProt Q63470); type: biochemical, Homo sapiens
[21] = target: T4, Sentrin-specific protease 1 (Homo sapiens, UniProt Q9P0U3); experiment: SENP1 catalytic domain blockers, concentration series – biochemical, kinetic FRET, dose response (AID 651697); type: functional; conditions: read-out: IC50_Mean
T4 sequence (Q9P0U3 whole entry): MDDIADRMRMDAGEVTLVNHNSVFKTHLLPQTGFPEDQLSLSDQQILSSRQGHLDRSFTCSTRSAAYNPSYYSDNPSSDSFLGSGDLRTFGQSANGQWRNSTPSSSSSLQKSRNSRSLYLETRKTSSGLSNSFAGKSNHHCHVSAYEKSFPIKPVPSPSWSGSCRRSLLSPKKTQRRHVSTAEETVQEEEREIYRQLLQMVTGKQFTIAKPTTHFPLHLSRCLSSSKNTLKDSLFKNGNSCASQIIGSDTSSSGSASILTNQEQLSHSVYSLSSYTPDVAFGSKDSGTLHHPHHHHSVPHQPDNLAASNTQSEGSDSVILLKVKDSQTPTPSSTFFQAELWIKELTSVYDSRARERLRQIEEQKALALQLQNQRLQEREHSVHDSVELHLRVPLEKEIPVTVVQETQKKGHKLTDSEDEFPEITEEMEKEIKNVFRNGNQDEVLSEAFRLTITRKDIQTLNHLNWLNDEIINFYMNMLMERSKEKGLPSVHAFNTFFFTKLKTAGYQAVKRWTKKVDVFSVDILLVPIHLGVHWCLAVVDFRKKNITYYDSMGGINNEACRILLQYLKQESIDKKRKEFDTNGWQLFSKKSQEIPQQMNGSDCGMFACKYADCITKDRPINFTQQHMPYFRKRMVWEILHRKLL

[22] = target: T4, Sentrin-specific protease 1; experiment: Dose response confirmation of small molecule inhibitors of the catalytic domain of the SUMO protease, SENP1 in a FRET assay.; type: functional; conditions: read-out: IC50_Mean
[23] = target: T5, Rac GTPase-activating protein 1 (Homo sapiens, UniProt Q9H0H5); experiment: blockers of MgcRacGAP-driven Rac1 GTP hydrolysis – biochemical, ADP Hunter fluorescence, primary and confirmatory, confirmation (AID 624330); type: functional
T5 sequence (Q9H0H5 whole entry): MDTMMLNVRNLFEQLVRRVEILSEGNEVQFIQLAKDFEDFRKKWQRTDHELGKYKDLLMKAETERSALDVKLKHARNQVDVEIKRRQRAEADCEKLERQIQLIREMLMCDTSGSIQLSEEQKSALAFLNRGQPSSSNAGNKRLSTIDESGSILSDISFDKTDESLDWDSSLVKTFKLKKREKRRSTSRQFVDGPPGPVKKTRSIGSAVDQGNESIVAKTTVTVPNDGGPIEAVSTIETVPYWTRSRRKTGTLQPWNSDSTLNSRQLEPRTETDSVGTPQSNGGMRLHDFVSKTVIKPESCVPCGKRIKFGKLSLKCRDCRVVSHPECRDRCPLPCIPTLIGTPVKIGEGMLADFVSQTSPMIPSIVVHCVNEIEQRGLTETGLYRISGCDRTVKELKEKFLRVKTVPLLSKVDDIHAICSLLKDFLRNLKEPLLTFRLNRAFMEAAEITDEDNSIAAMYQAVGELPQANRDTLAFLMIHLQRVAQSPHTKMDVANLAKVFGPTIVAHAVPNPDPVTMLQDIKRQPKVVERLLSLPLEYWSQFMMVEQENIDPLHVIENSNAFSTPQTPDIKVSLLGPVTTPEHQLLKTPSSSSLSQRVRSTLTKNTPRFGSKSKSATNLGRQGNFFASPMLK

[24] = viability of PTEN-deleted HCT116 cells – cell-based, HCT116 PTEN knockout, dose response (AID 1047); type: functional;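 also: HCT116 colon tumor cells with PTEN knocked out; cells exposed to compound for 60 hours before readout; potency for loss of cell viability measured by luminescence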
[25] = viability of HCT116 lacking mutant beta-catenin – cell-based, human colon tumor, dose response (AID 1045); type: functional;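 also: HCT116 colon tumor cells with beta catenin knocked out; cells exposed to compound for 60 hours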
[26] = Luminescence Cell-Based Dose Retest to Confirm Inhibitors of Cancer Stem Cells. [Related pubchem assays (depositor defined):AID2717, AID2721]; type: functional; conditions: Homo sapiens
[27] = viability loss of HMLE_sh_eGFP cells – cell-based, luminescence, counter-screen for HMLE_sh_ECad selective toxicity project, dose response (AID 463074); type: functional, Homo sapiens;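 also: HMLE human mammary epithelial cells expressing control shRNA against eGFP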

T3 sequence (P41145 whole entry): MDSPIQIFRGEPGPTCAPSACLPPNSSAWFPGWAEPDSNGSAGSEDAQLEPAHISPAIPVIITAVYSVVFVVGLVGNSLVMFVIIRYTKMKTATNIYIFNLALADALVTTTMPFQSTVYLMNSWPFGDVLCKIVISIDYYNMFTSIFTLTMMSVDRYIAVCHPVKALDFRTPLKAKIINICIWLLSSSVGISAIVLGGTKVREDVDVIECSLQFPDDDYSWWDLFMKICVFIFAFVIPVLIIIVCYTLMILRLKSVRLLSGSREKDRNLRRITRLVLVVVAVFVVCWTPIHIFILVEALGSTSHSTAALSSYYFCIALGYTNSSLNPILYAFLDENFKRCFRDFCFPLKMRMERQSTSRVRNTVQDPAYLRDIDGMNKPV
T1 sequence (P41143 whole entry): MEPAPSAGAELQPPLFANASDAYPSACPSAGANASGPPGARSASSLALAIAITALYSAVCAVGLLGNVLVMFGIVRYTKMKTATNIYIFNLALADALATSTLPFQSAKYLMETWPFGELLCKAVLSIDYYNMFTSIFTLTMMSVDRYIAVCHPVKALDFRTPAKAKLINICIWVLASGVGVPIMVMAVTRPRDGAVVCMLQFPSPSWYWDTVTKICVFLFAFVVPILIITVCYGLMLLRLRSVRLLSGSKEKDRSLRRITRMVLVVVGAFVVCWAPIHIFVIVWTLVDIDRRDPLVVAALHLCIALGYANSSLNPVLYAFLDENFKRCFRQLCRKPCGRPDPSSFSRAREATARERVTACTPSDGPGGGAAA
T2 sequence (P35372 whole entry): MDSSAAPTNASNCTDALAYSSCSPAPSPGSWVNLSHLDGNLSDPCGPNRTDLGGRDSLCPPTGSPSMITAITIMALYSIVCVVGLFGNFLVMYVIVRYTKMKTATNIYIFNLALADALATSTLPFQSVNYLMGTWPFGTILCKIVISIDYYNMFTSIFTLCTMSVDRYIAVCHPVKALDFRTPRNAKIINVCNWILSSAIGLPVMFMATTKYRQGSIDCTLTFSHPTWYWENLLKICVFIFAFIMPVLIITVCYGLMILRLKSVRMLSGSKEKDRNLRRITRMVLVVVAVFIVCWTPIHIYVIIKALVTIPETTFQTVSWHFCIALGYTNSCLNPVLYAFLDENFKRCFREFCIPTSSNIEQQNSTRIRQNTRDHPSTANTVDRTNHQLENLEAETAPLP
Lysine-specific demethylase 4C, sequence (Q9H3R0 whole entry): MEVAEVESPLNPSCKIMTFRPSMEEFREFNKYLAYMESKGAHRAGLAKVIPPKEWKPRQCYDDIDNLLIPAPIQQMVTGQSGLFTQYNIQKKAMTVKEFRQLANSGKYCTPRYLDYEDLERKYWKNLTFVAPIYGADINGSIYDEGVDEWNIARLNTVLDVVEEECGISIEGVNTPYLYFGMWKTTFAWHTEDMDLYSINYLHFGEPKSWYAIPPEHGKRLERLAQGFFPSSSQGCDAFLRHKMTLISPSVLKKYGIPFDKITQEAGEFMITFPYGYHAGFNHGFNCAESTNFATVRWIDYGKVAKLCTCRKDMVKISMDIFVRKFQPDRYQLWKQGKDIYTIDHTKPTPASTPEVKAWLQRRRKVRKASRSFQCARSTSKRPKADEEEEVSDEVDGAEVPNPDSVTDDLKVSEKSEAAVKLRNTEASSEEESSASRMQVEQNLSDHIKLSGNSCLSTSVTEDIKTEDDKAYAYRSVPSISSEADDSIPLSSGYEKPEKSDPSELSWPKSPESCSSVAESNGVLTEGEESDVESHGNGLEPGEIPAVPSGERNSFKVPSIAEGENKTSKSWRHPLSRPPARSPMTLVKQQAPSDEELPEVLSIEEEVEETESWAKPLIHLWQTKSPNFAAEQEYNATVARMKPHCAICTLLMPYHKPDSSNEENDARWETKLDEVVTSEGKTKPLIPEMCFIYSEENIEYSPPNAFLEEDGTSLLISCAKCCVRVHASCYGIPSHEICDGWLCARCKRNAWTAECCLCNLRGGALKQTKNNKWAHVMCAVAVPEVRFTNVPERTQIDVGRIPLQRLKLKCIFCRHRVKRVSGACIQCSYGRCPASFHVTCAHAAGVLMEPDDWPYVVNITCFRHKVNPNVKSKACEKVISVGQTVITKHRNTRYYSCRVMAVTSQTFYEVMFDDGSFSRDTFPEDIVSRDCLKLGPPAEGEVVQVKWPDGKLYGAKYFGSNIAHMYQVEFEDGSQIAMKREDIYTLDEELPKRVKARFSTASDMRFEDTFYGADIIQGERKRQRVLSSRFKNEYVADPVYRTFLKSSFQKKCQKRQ
Trypsin, sequence (P00761 whole entry): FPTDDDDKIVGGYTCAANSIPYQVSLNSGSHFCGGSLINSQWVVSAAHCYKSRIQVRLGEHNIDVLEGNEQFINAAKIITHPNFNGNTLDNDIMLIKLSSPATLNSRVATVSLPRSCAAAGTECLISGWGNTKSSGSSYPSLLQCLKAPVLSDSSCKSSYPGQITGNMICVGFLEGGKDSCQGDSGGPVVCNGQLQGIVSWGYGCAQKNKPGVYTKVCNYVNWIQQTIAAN
CAAX prenyl protease 2, sequence (Q03530 whole entry): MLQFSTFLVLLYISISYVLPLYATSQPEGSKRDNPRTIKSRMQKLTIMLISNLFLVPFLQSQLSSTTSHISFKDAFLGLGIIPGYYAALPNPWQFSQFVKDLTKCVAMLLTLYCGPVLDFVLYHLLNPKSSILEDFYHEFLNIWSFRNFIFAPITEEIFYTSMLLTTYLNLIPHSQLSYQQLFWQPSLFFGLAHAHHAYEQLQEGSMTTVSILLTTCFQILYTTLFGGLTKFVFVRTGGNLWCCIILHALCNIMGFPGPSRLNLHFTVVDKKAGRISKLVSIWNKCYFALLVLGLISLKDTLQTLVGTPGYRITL
Cytochrome P450 3A4, sequence (P08684 whole entry): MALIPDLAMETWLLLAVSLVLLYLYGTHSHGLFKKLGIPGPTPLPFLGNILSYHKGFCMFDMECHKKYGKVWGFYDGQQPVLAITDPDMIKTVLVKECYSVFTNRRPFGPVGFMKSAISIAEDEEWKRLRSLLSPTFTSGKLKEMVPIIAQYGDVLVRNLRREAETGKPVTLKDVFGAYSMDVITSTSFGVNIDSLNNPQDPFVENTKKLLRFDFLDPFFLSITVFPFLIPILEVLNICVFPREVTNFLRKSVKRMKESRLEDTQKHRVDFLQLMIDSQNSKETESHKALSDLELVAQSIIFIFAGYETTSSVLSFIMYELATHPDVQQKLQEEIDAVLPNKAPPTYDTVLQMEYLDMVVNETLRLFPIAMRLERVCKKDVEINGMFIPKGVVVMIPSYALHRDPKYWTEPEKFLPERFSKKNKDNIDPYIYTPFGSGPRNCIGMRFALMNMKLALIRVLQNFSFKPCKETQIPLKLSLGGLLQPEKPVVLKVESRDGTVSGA
CAAX prenyl protease 1, sequence (P47154 whole entry): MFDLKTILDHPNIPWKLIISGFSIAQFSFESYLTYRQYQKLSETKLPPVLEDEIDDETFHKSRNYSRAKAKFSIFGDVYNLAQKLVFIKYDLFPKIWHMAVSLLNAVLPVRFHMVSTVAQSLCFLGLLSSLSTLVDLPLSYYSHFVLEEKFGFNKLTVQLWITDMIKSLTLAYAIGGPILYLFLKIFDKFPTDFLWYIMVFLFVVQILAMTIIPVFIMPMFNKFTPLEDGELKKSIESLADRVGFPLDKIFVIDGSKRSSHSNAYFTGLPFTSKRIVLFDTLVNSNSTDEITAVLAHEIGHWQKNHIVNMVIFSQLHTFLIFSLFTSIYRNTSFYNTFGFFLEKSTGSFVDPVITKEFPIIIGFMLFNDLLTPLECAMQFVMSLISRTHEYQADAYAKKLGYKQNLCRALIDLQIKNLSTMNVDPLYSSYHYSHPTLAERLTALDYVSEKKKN
Cytochrome P450 2C9, sequence (P11712 whole entry): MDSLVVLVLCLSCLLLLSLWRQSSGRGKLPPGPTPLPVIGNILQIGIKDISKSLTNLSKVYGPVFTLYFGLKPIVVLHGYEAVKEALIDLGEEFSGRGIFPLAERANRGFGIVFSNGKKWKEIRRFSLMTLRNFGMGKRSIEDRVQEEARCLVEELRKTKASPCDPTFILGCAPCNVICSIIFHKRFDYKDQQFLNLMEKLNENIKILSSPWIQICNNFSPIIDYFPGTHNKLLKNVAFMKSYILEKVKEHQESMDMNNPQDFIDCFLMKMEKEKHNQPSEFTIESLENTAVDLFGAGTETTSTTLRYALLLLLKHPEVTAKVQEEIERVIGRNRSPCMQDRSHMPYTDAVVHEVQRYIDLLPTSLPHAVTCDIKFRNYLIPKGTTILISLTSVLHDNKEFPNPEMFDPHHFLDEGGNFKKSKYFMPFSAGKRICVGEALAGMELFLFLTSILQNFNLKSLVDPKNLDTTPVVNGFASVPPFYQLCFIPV
Cytochrome P450 2D6, sequence (P10635 whole entry): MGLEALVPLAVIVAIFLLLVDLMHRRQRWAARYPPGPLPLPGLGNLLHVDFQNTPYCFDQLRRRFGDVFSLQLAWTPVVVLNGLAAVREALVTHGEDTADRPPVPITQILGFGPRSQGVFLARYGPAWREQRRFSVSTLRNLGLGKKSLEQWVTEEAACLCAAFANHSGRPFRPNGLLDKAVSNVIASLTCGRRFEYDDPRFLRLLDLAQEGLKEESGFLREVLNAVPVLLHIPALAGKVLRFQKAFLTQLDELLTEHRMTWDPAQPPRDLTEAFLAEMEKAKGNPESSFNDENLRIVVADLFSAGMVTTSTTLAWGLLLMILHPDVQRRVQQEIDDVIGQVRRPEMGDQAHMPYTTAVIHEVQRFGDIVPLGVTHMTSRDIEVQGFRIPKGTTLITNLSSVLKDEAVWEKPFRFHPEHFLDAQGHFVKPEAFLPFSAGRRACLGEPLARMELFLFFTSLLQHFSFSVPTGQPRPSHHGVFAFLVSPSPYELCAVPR

Compound: CCCCN1C(=O)/C(=C/Nc2cccnc2Cl)C(=O)N(CCCCl)C1=O
- AC50 (Trypsin): 47.1 µM (active)
- AC50 (CAAX prenyl protease 2): 40.4 µM (active)
- AC50 (CAAX prenyl protease 1): 7.88 µM (active)

Compound: CCCCN(Cc1cc2cc(C)ccc2[nH]c1=O)C(=O)c1ccccn1
- IC50 [1]: > 32 µM (inactive)
- EC50 (Mu-type opioid receptor [2]): > 32 µM (inactive)
- EC50 [3]: > 32 µM (inactive)
- EC50 [4]: 4.95 µM
- EC50 [5]: 4.84 µM
- EC50 [6]: 7.69 µM (active)
- EC50 (Mu-type opioid receptor [7]): > 32 µM (inactive)
- EC50 [8]: > 32 µM (inactive)
- IC50 [9]: > 32 µM (inactive)
- IC50 (Mu-type opioid receptor [10]): > 32 µM (inactive)
- EC50 [11]: 8.38 µM (active)
- IC50 [12]: > 32 µM (inactive)

Compound: COc1cc(SC)ccc1C(=O)Nc1cc(C)ccn1
- AC50 (Escherichia coli): 31.5 µM (active)

Compound: N=c1ccn(Cc2ccc(Cl)c(Cl)c2)cc1
- IC50 [13]: 3.32 µM (active)
- IC50 [14]: 4.07 µM (active)

Compound: c1ccc(CSc2ncnc3c2sc2nc(N4CCOCC4)c4c(c23)CCCC4)cc1
- EC50 [15]: 18.6 µM (not active)
- EC50 [16]: > 79.4 µM (not active)
- EC50 [17]: > 79.4 µM (not active)
- AC50 (Cytochrome P450 2C9): 1.12 µM (inconclusive)
- AC50 (Cytochrome P450 2D6): inconclusive
- AC50 (Cytochrome P450 3A4): inconclusive

Compound: C[C@@H]1O[C@@H](OC[C@H]2O[C@@H](Oc3cc(O)c4c(=O)cc(-c5ccc(O)c(O)c5)oc4c3)[C@H](O)[C@@H](O)[C@@H]2O)[C@H](O)[C@H](O)[C@H]1O
- AC50 [18]: 2.86 µM (active)
- AC50 [19]: 2.82 µM (active)
- AC50 [20]: 15.8 µM (active)
- IC50 [21]: 14.7 µM (active)
- IC50 [22]: 6.84 µM (active)
- IC50 [23]: 42.7 µM (active)

Compound: Cc1nn(Cc2ccc(Cl)cc2)c(Cl)c1/C=N/NC(=O)CNc1ccccc1F
- EC50 [24]: 15.8 µM (active)
- EC50 [25]: 18 µM (active)
- AC50 [26]: 16.2 µM (active)
- AC50 [27]: 24.9 µM (active)
